Measurements published in article PMC3968527, “Dynamic mass redistribution analysis of endogenous β-adrenergic receptor signaling in neonatal rat cardiac fibroblasts” (Pharmacology Research & Perspectives, 2014).
Read-outs that look alike come from different tables or passages of the source.

Legend:
cAMP generation in NRCF = assay: FRET detection of cAMP generation using ICUE3 in NRCF; format: cell-based, rat; details: for effect on ISO-induced FRET (cAMP generation): antagonist 10 μmol/L, ISO 1 μmol/L
Protocol: ICUE3 adenovirus (Ad-ICUE3) was generously supplied by Dr. Yang Xiang (UC Davis). NRCF were seeded in the fibronectin-coated 10 mm glass-bottom insert of 35 mm dishes (MatTek Corporation, Ashland, MA) at 5 × 10^4 cells/10 mm insert and infected with Ad-ICUE3 at a multiplicity of infection (MOI) of 40 for 24 h with or without CTX addition (100 ng/mL overnight). 24 h after infection, the cells were rinsed and media replaced with imaging buffer, as previously described (Tilley et al. [2010]), prior to imaging using a Leica DMI4000B inverted microscope with a Leica DFC365 FX 1.4-megapixel monochrome digital camera with cyan fluorescent protein (CFP) excitation and CFP and yellow fluorescent protein (YFP) emissions measured every 2 sec. Cells were pretreated for 5 min with buffer or antagonists then, following 30 sec of baseline reads, the cells were stimulated with isoproterenol. The entire field-of view at 20× magnification was used to capture changes in fluorescence resonance energy transfer (FRET) in the NRCF population and each treatment condition was performed independently at least three times. Quantification of the ICUE3 ratio was calculated as changes in CFP emission/YFP emission over time, normalized to baseline.
EC50 and Emax values were attained via nonlinear regression curve fitting of the DMR, ICUE3, or EGFR internalization responses using Prism 5.0 software (GraphPad Software Inc.; San Diego, CA). Statistical analyses were performed using a one-way analysis of variance (ANOVA) followed by a Newman–Keuls multiple comparisons test or a two-tailed unpaired t-test, as appropriate. A value of P < 0.05 was considered statistically significant.

[1] = system: endogenous βAR in primary neonatal rat cardiac fibroblasts (NRCF); assay: Dynamic mass redistribution (DMR) response to βAR ligands in NRCF; format: cell-based; details: for EC50: read-out: EC50 (DMR)
EGFR in NRCF = assay: EGFR-dependent DMR response to EGF in NRCF; format: cell-based, rat
dynamin = system: dynamin; set-up: method as in Kirchhausen et al. [2008]; details: known/reported IC50; ref Kirchhausen et al. [2008]; cited from earlier work
Flag-EGFR-mYFP = assay: EGFR internalization, on-cell western for loss of surface Flag-EGFR-mYFP in NRCF; format: cell-based, rat; details: Fig. 7C, 60 min treatment
Protocol: NRCF were seeded either in 35 mm glass-bottom dishes as described above or in clear-bottom black-walled 96-well plates (655090; Greiner Bio-One, Monroe, NC) at 3 × 10^4 cells/well and infected with Ad-Flag-EGFR-mYFP (constructed at Vector Biolabs, Philadelphia, PA) at an MOI of 200 for 24 h prior to stimulation with agonist as indicated. After 1 h, cells were fixed in 4% paraformaldehyde (163201145; Wako Chemicals, Richmond, VA) for 20 min, rinsed with phosphate-buffered saline (Corning/Cellgro, 21-030-CV) and on-cell western staining (nonpermeabolized) was performed using anti-Flag M2 antibody (1:1000, 3 h at RT, Sigma, F1804), IRDye® 800CW Conjugated Goat (polyclonal) Anti-mouse secondary antibody (1:1000, 1 h at RT, LI-COR, 926-32210) and DRAQ5 (1:5000, 1 h at RT, Cell Signaling Technology, #4084) following the LI-COR on-cell protocol. Flag and DRAQ5 signals were detected using Odyssey CLx infrared imaging system (LI-COR Biosciences, Lincoln, NE) and YFP signal was measured with a Tecan M1000 plate reader. Amount of EGFR internalization was calculated by normalizing the Flag signal to both the DRAQ5 (cell number control) and YFP (infection control) signals: Flag/DRAQ5/YFP. […] San Diego, CA). Statistical analyses were performed using a one-way analysis of variance (ANOVA) followed by a Newman–Keuls multiple comparisons test or a two-tailed unpaired t-test, as appropriate. […]

[2] = antagonist 10 μmol/L, ISO 100 nmol/L
[3] = Rattus norvegicus, Cardiac fibroblast, agonist + buffer, 3-day-old NRCF
[4] = agonist + buffer, 3-day-old NRCF
[5] = agonist + cholera toxin (100 ng/mL)
[6] = agonist + propranolol (1 μmol/L)
[7] = βAR antagonist alone, positive-deflected DMR (inverse agonism)

## COc1ccc(C2CNC(=O)C2)cc1OC1CCCC1 (stereo not shown) [Rol, rolipram]
cAMP generation in NRCF; Rol 10 nmol/L
  effect on ISO-mediated ICUE3 response: significantly enhanced
[1]; Rol 10 nmol/L
  effect on ISO-mediated DMR response: significantly enhanced

## cholera toxin [CTX]
cAMP generation in NRCF
  effect on ISO-dependent cAMP generation: substantially reduced
[1]
  ISO-induced DMR response after pretreatment, % of the buffer-pretreated ISO response: ~35%
  reduction of the ISO DMR response: ~65%

## Cn1cc(C(F)(F)F)nc1-c1ccc(OCC(O)CNCCOc2ccc(O)c(C(N)=O)c2)cc1 (stereo not shown) [CGP 20712A]
cAMP generation in NRCF
  effect on ISO-induced FRET (cAMP generation): partial blockade
[1]; 100 μmol/L, likely due to a toxic effect on the cells
  DMR response of antagonist alone: extreme positive DMR deflection
[1]; [2]
  effect on ISO-mediated DMR effect: very small, though significant, decrease

## CC(C)(C)NCC(O)c1ccc(O)c(CO)c1 (stereo not shown) [Salbutamol, salbutamol]
[1]; [3]
  EC50: 15.6 ± 0.8 nM
[1]; [4]
  Emax (DMR): −257.1 ± 1.8 pm
[1]; [5]
  Emax (DMR): −122.4 ± 2.1 pm
  EC50: 30.1 ± 4.9 nM
[1]; [6]
  Emax (DMR): −251.9 ± 6.3 pm

## CC(CCc1ccc(O)cc1)NCCc1ccc(O)c(O)c1 (stereo not shown) [Dobutamine]
[1]; Prop 1 μmol/L
  DMR responses in presence of Prop: completely blocked
[1]; [3]
  EC50: 134 ± 11.7 nM
[1]; [4]
  Emax (DMR): −217.1 ± 3.5 pm
[1]; [5]
  Emax (DMR): −86.0 ± 3.4 pm
  EC50: 50 ± 16.8 nM
[1]; at micromolar concentrations
  maximal DMR response, % of the ISO and Sal responses: ~75%

## epidermal growth factor [EGF]
EGFR in NRCF; Fig. S2D, read-out: EC50 (positive-deflected DMR)
  EC50: < 1 nM
EGFR in NRCF; printed in picture of Fig. S2D, read-out: EC50 (peak DMR)
  EC50: 0.45 ± 0.03 nM

## CC(C)NCC(O)COc1cccc2ccccc12 (stereo not shown) [Propranolol, propranolol]
cAMP generation in NRCF
  effect on ISO-induced FRET (cAMP generation): significantly blocked
[1]; [2]
  effect on ISO-mediated DMR effect: very significantly reduced
[1]; [7]
  Emax (DMR): 81.2 ± 2.5 pm

## O=C(N/N=C/c1ccc(O)c(O)c1)c1cc2ccccc2cc1O [Dyn, dynasore]
[1]; Dyn pretreatment 100 μmol/L, 30 min
  effect on ISO-mediated DMR effect: enhanced
dynamin
  IC50: 15000 nM

## Cc1ccc(OCC(O)C(C)NC(C)C)c2c1CCC2 (stereo not shown) [ICI 188,551, ICI 118,551]
cAMP generation in NRCF
  effect on ISO-induced FRET (cAMP generation): significantly blocked
[1]; [2]
  effect on ISO-mediated DMR effect: very significantly reduced
[1]; [7]
  Emax (DMR): 117.3 ± 5.4 pm
  EC50: 192 ± 61.7 nM

## COc1cc2ncnc(Nc3ccc(F)c(Cl)c3)c2cc1OCCCN1CCOCC1 [Gef, gefitinib]
[1]; ISO 100 nmol/L, CTX 100 ng/mL overnight, Gef 1 μmol/L
  ISO-induced DMR response after pretreatment, % of the buffer-pretreated ISO response: ~65%
[1]; ISO 100 nmol/L, CTX 100 ng/mL overnight, Gef 1 μmol/L, Fig. 7F
  reduction of the ISO DMR response: ~35%

## CC(C)NCC(O)c1ccc(O)c(O)c1 (stereo not shown) [Isoproterenol]
Flag-EGFR-mYFP
  EC50: 17.1 ± 5.5 nM
cAMP generation in NRCF; Rattus norvegicus, Fig. 5B
  EC50: 7.4 ± 5.6 nM
[1]; 8-day-old NRCF, Fig. 1D
  Emax (DMR): −40 ± 5.3 pm
[1]; ISO 100 nmol/L, 1 × 10^4 cells per well
  ISO DMR response, % of the response attained with 2.5 × 10^4 cells: ~25%
[1]; ISO 100 nmol/L, 1.5 × 10^4 cells per well
  ISO DMR response, % of the response attained with 2.5 × 10^4 cells: ~50%
[1]; [3]
  EC50: 15.4 ± 4.2 nM
[1]; [4]
  Emax (DMR): −266.1 ± 8.2 pm
[1]; [5]
  Emax (DMR): −109.6 ± 6.4 pm
  EC50: 30.1 ± 17.4 nM
[1]; [6]
  Emax (DMR): −247.6 ± 4.3 pm
  EC50: 809 ± 84.1 nM
